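96-well plates; 48 h exposure; 5 concentrations. Endpoints by linear interpolation between flanking doses. Not reached: highest tested concentration assigned. Here, GI50 denotes the concentration required for 50% inhibition of growth.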 Activity calls are given as the source filed them. Rule as the data show it: active = GI50 up to about 1.1 µM and inactive = higher.
Key:
Assay in all cases: growth of human tumour cells (NCI), 48 h
[1] = tested on: SNB-19
[2] = tested on: OVCAR-4
[3] = tested on: MDA-MB-231
[4] = tested on: MDA-N
[5] = tested on: OVCAR-8
[6] = tested on: U-251
[7] = tested on: A498
[8] = tested on: MDA-MB-435
[9] = tested on: K562
[10] = tested on: COLO 205
[11] = tested on: ACHN
[12] = tested on: SK-OV-3
[13] = tested on: SF-539
[14] = tested on: DU-145
[15] = tested on: KM12
[16] = tested on: RPMI-8226
[17] = tested on: 786-0
[18] = tested on: MOLT-4
[19] = tested on: NCI-H23
[20] = tested on: SK-MEL-28

Row | SMILES | GI50 [1] | GI50 [2] | GI50 [3] | GI50 [4] | GI50 [5] | GI50 [6] | GI50 [7] | GI50 [8] | GI50 [9] | GI50 [10] | GI50 [11] | GI50 [12] | GI50 [13] | GI50 [14] | GI50 [15] | GI50 [16] | GI50 [17] | GI50 [18] | GI50 [19] | GI50 [20]
1 | CC/C(Cl)=N\OC(=O)Nc1ccc(OC)c(C)c1 | 42.1 µM (inactive) | 16.2 µM (inactive) | 30.6 µM (inactive) | 18.7 µM (inactive) | 17.5 µM (inactive) | 45.3 µM (inactive) | 26.5 µM (inactive) | 34.2 µM (inactive) | 15.7 µM (inactive) | 15.1 µM (inactive) | 8.93 µM (inactive) | 58.6 µM (inactive) | 17.4 µM (inactive) | 28 µM (inactive) | 23.8 µM (inactive) | 11.9 µM (inactive) | 12.5 µM (inactive) | 5.74 µM (inactive) | 15 µM (inactive) | 23.2 µM (inactive)
2 | COc1cc2c(cc1OC)-c1cc3ccccc3c(=O)n1CCC2 | 18 µM (inactive) | 24.6 µM (inactive) | 5.47 µM (inactive) | 3.56 µM (inactive) | 9.35 µM (inactive) | 6.49 µM (inactive) | 6.62 µM (inactive) | 5.69 µM (inactive) | 3.21 µM (inactive) | 8.47 µM (inactive) | 13.4 µM (inactive) | 7.31 µM (inactive) | 2.94 µM (inactive) | 10.7 µM (inactive) | 8.47 µM (inactive) | 7.91 µM (inactive) | 6.97 µM (inactive) | 1.89 µM (inactive) | 19.7 µM (inactive) | 17.9 µM (inactive)
3 | CN(O)C(=S)c1ccccc1 | 30.2 µM (inactive) | 1.88 µM (inactive) | 9.33 µM (inactive) | 6.95 µM (inactive) | 2.47 µM (inactive) | 3.18 µM (inactive) | 20.2 µM (inactive) | 3.38 µM (inactive) | 0.347 µM (active) | 0.379 µM (active) | 4.42 µM (inactive) | 11.3 µM (inactive) | 9.59 µM (inactive) | 41.2 µM (inactive) | 5.86 µM (inactive) | 0.325 µM (active) | 1.38 µM (inactive) | 0.325 µM (active) | 1.91 µM (inactive) | 3.31 µM (inactive)
4 | CC(C)=NNc1ncnc2[nH]cnc12 | 45.5 µM (inactive) | 9.95 µM (inactive) | 6.95 µM (inactive) | 8.79 µM (inactive) | 5.55 µM (inactive) | 20.4 µM (inactive) | 5.07 µM (inactive) | 6.87 µM (inactive) | > 19.6 µM (inactive) | 5.94 µM (inactive) | 5.7 µM (inactive) | 3.88 µM (inactive) | 36.4 µM (inactive) | 3.85 µM (inactive) | 5.33 µM (inactive) | 4.83 µM (inactive) | 5.83 µM (inactive) | 9.06 µM (inactive) | 29.6 µM (inactive) | 63 µM (inactive)
5 | C=CC(Cl)(CBr)CCC(Br)=C(C)C (stereo not drawn) | 34.5 µM (inactive) | 20.8 µM (inactive) | 19.4 µM (inactive) | 19.4 µM (inactive) | 24.9 µM (inactive) | 16.9 µM (inactive) | > 100 µM (inactive) | 20.4 µM (inactive) | 31.2 µM (inactive) | 17.9 µM (inactive) | 21.6 µM (inactive) | – | 21.4 µM (inactive) | 33.3 µM (inactive) | 20.2 µM (inactive) | 21.1 µM (inactive) | 25.6 µM (inactive) | > 100 µM (inactive) | 25.9 µM (inactive) | 20 µM (inactive)
6 | Oc1ccc2c(c1)-c1c(c3ccccc3n1CCN1CCOCC1)CC2 | 38.6 µM (inactive) | – | > 100 µM (inactive) | 33.7 µM (inactive) | 33.2 µM (inactive) | 42.3 µM (inactive) | > 100 µM (inactive) | 30.9 µM (inactive) | > 100 µM (inactive) | 41.7 µM (inactive) | 23.1 µM (inactive) | 27.5 µM (inactive) | 46 µM (inactive) | 46 µM (inactive) | 20 µM (inactive) | > 100 µM (inactive) | 33.7 µM (inactive) | > 100 µM (inactive) | 27.9 µM (inactive) | –
7 | O=C(O)CCc1nc(-c2ccccc2-n2cccc2)no1 | > 100 µM (inactive) | 11.8 µM (inactive) | > 100 µM (inactive) | 31.4 µM (inactive) | > 100 µM (inactive) | > 100 µM (inactive) | > 100 µM (inactive) | 16.6 µM (inactive) | > 100 µM (inactive) | > 100 µM (inactive) | > 100 µM (inactive) | > 100 µM (inactive) | > 100 µM (inactive) | > 100 µM (inactive) | 5.89 µM (inactive) | > 100 µM (inactive) | > 100 µM (inactive) | – | > 100 µM (inactive) | > 100 µM (inactive)
8 | O=c1[nH]c(N/N=C\C(=N/Nc2nc3ccccc3c(=O)[nH]2)C(O)C(O)C(O)CO)nc2ccccc12 (stereo not drawn) | > 100 µM (inactive) | – | > 100 µM (inactive) | > 100 µM (inactive) | > 100 µM (inactive) | > 100 µM (inactive) | > 100 µM (inactive) | > 100 µM (inactive) | > 100 µM (inactive) | > 100 µM (inactive) | > 100 µM (inactive) | > 100 µM (inactive) | > 100 µM (inactive) | > 100 µM (inactive) | > 100 µM (inactive) | > 100 µM (inactive) | > 100 µM (inactive) | > 100 µM (inactive) | > 100 µM (inactive) | > 100 µM (inactive)
9 | CC1=NNC(=O)C1C1CC(c2c[nH]c3ccccc23)=NNC1=O (stereo not drawn) | > 100 µM (inactive) | – | > 100 µM (inactive) | > 100 µM (inactive) | > 100 µM (inactive) | > 100 µM (inactive) | > 100 µM (inactive) | > 100 µM (inactive) | > 100 µM (inactive) | > 100 µM (inactive) | > 100 µM (inactive) | > 100 µM (inactive) | > 100 µM (inactive) | > 100 µM (inactive) | 62.7 µM (inactive) | > 100 µM (inactive) | > 100 µM (inactive) | > 100 µM (inactive) | > 100 µM (inactive) | > 100 µM (inactive)
10 | CCOC(=O)N(CC)c1c(C(F)(F)F)cc(-c2ccccc2)[nH]c1=O | > 100 µM (inactive) | 30.8 µM (inactive) | > 100 µM (inactive) | 23.3 µM (inactive) | 49.4 µM (inactive) | 55.2 µM (inactive) | 50.7 µM (inactive) | 22.8 µM (inactive) | 23.1 µM (inactive) | 32.4 µM (inactive) | 58.6 µM (inactive) | 92 µM (inactive) | – | 72.3 µM (inactive) | 36.1 µM (inactive) | 14.5 µM (inactive) | 64.3 µM (inactive) | 25.8 µM (inactive) | 52.2 µM (inactive) | 70.6 µM (inactive)
11 | CC(C)(C)OC(=O)CN1C(=O)CC1CC(=O)c1ccccc1 (stereo not drawn) | 19.8 µM (inactive) | 30.5 µM (inactive) | 17.2 µM (inactive) | 20.3 µM (inactive) | 17.3 µM (inactive) | 16 µM (inactive) | 27.4 µM (inactive) | 18.9 µM (inactive) | 4.14 µM (inactive) | 26.6 µM (inactive) | 21.2 µM (inactive) | – | 19.4 µM (inactive) | 17.9 µM (inactive) | 20 µM (inactive) | 3.05 µM (inactive) | 17.5 µM (inactive) | 4.39 µM (inactive) | 18.5 µM (inactive) | 19.5 µM (inactive)
12 | O=C(c1ccccc1)n1c(Cc2ccccc2)nc2cc(C34CC5CC(CC(C5)C3)C4)ccc21 | 58.1 µM (inactive) | > 100 µM (inactive) | 54.2 µM (inactive) | 47 µM (inactive) | 37.2 µM (inactive) | 44.6 µM (inactive) | 62.1 µM (inactive) | 92 µM (inactive) | > 100 µM (inactive) | 27.7 µM (inactive) | 34.8 µM (inactive) | 96.2 µM (inactive) | – | 56.5 µM (inactive) | 69.7 µM (inactive) | 31.8 µM (inactive) | 61.9 µM (inactive) | 35.9 µM (inactive) | 27.4 µM (inactive) | 84.3 µM (inactive)
13 | CC1=C/C(=N\NS(=O)(=O)c2ccc([N+](=O)[O-])cc2)CC(C)(C)C1 | 69 µM (inactive) | – | > 100 µM (inactive) | > 100 µM (inactive) | > 100 µM (inactive) | 97.1 µM (inactive) | > 100 µM (inactive) | > 100 µM (inactive) | 62.1 µM (inactive) | > 100 µM (inactive) | 54.6 µM (inactive) | > 100 µM (inactive) | > 100 µM (inactive) | > 100 µM (inactive) | 76.2 µM (inactive) | > 100 µM (inactive) | > 100 µM (inactive) | > 100 µM (inactive) | 92.9 µM (inactive) | > 100 µM (inactive)
14 | O=c1c2cc(-c3ccccc3)sc2nc2n1N=C(c1ccc(Cl)cc1)CS2 | – | > 100 µM (inactive) | > 100 µM (inactive) | > 100 µM (inactive) | > 100 µM (inactive) | > 100 µM (inactive) | > 100 µM (inactive) | > 100 µM (inactive) | > 100 µM (inactive) | > 100 µM (inactive) | > 100 µM (inactive) | > 100 µM (inactive) | > 100 µM (inactive) | > 100 µM (inactive) | > 100 µM (inactive) | > 100 µM (inactive) | > 100 µM (inactive) | > 100 µM (inactive) | > 100 µM (inactive) | > 100 µM (inactive)
15 | O=C1Nc2ccc(Br)cc2/C1=N/S(=O)(=O)O | > 100 µM (inactive) | 19 µM (inactive) | 16.3 µM (inactive) | 11.4 µM (inactive) | 24.4 µM (inactive) | 13.6 µM (inactive) | > 100 µM (inactive) | 6.38 µM (inactive) | 17.3 µM (inactive) | 46.8 µM (inactive) | 45.9 µM (inactive) | 79.8 µM (inactive) | – | 57.1 µM (inactive) | 28.4 µM (inactive) | 14.1 µM (inactive) | 25.4 µM (inactive) | 22 µM (inactive) | 19.6 µM (inactive) | 30.9 µM (inactive)

Reference: ChEMBL document CHEMBL1201862, “PubChem BioAssay data set” (2004)
